Experimental data published in US20090252788A1, “Balsalazide formulations and manufacture and use thereof” (Salix Pharmaceuticals, Inc., priority 2005, published 2009).

Assay: Particle size distribution and specific surface area (LS 200, Small Volume Module, Fraunhofer optical model)
Assay type: physicochemical
Conditions: for Particle size, % < 10: 10% of volume below this size; for Particle size, % < 25: 25% of volume below this size; for Particle size, % < 50: 50% of volume below this size; for Particle size, % < 75: 75% of volume below this size; for Particle size, % < 100: 100% of volume below this size; for Mean particle size (volume statistics, arithmetic) / Median particle size (volume statistics, arithmetic) / Specific Surf. Area: calculations from 0.375 μm to 2000 μm
Description: FIG. 2 depicts and the data below tabulate for Sample 1 the arithmetic statistics describing surface area, particle size, and cumulative volume characteristics for one lot of drug substance (feed material). The particle size distribution for this lot is depicted in FIG. 2.
Table 11 A-D tabulates the arithmetic statistics describing surface area, particle size, and cumulative volume characteristics for three lots of drug substance (feed material). The particle size distributions for these lots are depicted in FIG. 7. […] Of these three lots of drug substance, 100% of the particles are less than 83.89 μm, 373.1 μm, and 69.61 μm, respectively.
Table 12 tabulates the arithmetic statistics describing surface area, particle size, and cumulative volume characteristics for three lots of drug product (encapsulated granulation samples) that were manufactured with the three lots of drug substance (feed material) as depicted in FIG. 7. […] Of these three lots of drug product, 100% of the granules are less than 1660 μm, 2000 μm, and 1512 μm, respectively. The particle size distributions for these three lots are depicted in FIG. 8.

[1] = Particle Diameter (Lower) 0.375 μm
[2] = Particle Diameter (Lower) 0.656 μm
[3] = Particle Diameter (Lower) 1.149 μm
[4] = Particle Diameter (Lower) 2.011 μm
[5] = Particle Diameter (Lower) 3.519 μm
[6] = Particle Diameter (Lower) 6.158 μm
[7] = Particle Diameter (Lower) 10.78 μm
[8] = Particle Diameter (Lower) 18.86 μm
[9] = Particle Diameter (Lower) 33.01 μm
[10] = Particle Diameter (Lower) 57.77 μm
[11] = Particle Diameter (Lower) 101.1 μm
[12] = Particle Diameter (Lower) 176.9 μm
[13] = Particle Diameter (Lower) 309.6 μm
[14] = Particle Diameter (Lower) 541.9 μm
[15] = Particle Diameter (Lower) 948.3 μm
[16] = Particle Diameter (Lower) 1660 μm

SMILES	Cum. < Volume % [1]	Diff. Volume % [1]	Cum. < Volume % [2]	Diff. Volume % [2]	Cum. < Volume % [3]	Diff. Volume % [3]	Cum. < Volume % [4]	Diff. Volume % [4]	Cum. < Volume % [5]	Diff. Volume % [5]	Cum. < Volume % [6]	Diff. Volume % [6]	Cum. < Volume % [7]	Diff. Volume % [7]	Diff. Volume % [8]	Cum. < Volume % [9]	Diff. Volume % [9]	Cum. < Volume % [10]	Diff. Volume % [10]	Cum. < Volume % [11]	further results
O=C(O)CCNC(=O)c1ccc(/N=N/c2ccc(O)c(C(=O)O)c2)cc1 [Feed Powder Sample C (#53.$02)]	0%	1.96%	1.96%	4.37%	6.33%	6.03%	12.4%	11.3%	23.7%	20.6%	44.2%	26.7%	70.9%	20.7%	7.30%	98.9%	1.07%	99.99%	0.013%	100%	Diff. Volume % [11]: 0%; Cum. < Volume % [12]: 100%; Diff. Volume % [12]: 0%
O=C(O)CCNC(=O)c1ccc(/N=N/c2ccc(O)c(C(=O)O)c2)cc1 [Feed Powder Sample A (#35.$01)]	0%	1.82%	1.82%	3.88%	5.70%	4.90%	10.6%	9.30%	19.9%	18.4%	38.3%	25.7%	63.9%	21.8%	10.2%	95.9%	3.32%	99.3%	0.75%	100%	Particle size, % < 10: 1.899 μm; Particle size, % < 25: 4.253 μm; Particle size, % < 50: 8.031 μm; Particle size, % < 75: 13.88 μm; Particle size, % < 100: 83.89 μm; Cum. < Volume % [8]: 85.7%; Diff. Volume % [11]: 0%; Cum. < Volume % [12]: 100%; Diff. Volume % [12]: 0%; Cum. < Volume % [13]: 100%; Mean particle size (volume statistics, arithmetic): 10.85 μm; Median particle size (volume statistics, arithmetic): 8.031 μm; Specific Surf. Area: 14230 cm^2/mL
O=C([O-])CCNC(=O)c1ccc(/N=N/c2ccc(O)c(C(=O)[O-])c2)cc1.[Na+].[Na+] [Sample 1]	0%	2.66%	2.66%	6.09%	8.74%	8.50%	17.2%	14.4%	31.6%	22.8%	54.5%	25.3%	79.8%	15.8%	4.34%	99.97%	0.030%	100%	0%	100%	Particle size, % < 10: 1.266 μm; Particle size, % < 25: 2.827 μm; Particle size, % < 50: 5.584 μm; Particle size, % < 75: 9.624 μm; Particle size, % < 100: 43.67 μm; Cum. < Volume % [8]: 95.6%; Diff. Volume % [11]: 0%; Cum. < Volume % [12]: 100%; Diff. Volume % [12]: 0%; Cum. < Volume % [13]: 100%; Diff. Volume % [13]: 0%; Cum. < Volume % [14]: 100%; Diff. Volume % [14]: 0%; Cum. < Volume % [15]: 100%; Diff. Volume % [15]: 0%; Cum. < Volume % [16]: 100%; Diff. Volume % [16]: 0%; Mean particle size (volume statistics, arithmetic): 6.967 μm; Median particle size (volume statistics, arithmetic): 5.584 μm; Specific Surf. Area: 19389 cm^2/mL
O=C(O)CCNC(=O)c1ccc(/N=N/c2ccc(O)c(C(=O)O)c2)cc1 [Feed Powder Sample B (#41.$02)]	0%	0.64%	0.64%	1.50%	2.15%	1.94%	4.08%	3.16%	7.24%	6.98%	14.2%	13.9%	28.1%	21.3%	23.1%	72.5%	17.0%	89.5%	7.10%	96.6%	Cum. < Volume % [8]: 49.5%; Diff. Volume % [11]: 2.65%; Cum. < Volume % [12]: 99.3%; Diff. Volume % [12]: 0.73%
O=C([O-])CCNC(=O)c1ccc(/N=N/c2ccc(O)c(C(=O)[O-])c2)cc1.[Na+].[Na+] [Sample 4]	0%	0.61%	0.61%	1.55%	2.17%	2.46%	4.62%	4.37%	8.99%	8.23%	17.2%	14.1%	31.3%	21.2%	25.5%	78.0%	17.2%	95.3%	3.43%	98.7%	Particle size, % < 10: 3.851 μm; Particle size, % < 25: 8.660 μm; Particle size, % < 50: 17.82 μm; Particle size, % < 75: 30.86 μm; Particle size, % < 100: 309.6 μm; Cum. < Volume % [8]: 52.5%; Diff. Volume % [11]: 1.08%; Cum. < Volume % [12]: 99.8%; Diff. Volume % [12]: 0.24%; Cum. < Volume % [13]: 100%; Diff. Volume % [13]: 0%; Cum. < Volume % [14]: 100%; Diff. Volume % [14]: 0%; Cum. < Volume % [15]: 100%; Diff. Volume % [15]: 0%; Cum. < Volume % [16]: 100%; Diff. Volume % [16]: 0%; Mean particle size (volume statistics, arithmetic): 22.93 μm; Median particle size (volume statistics, arithmetic): 17.82 μm; Specific Surf. Area: 7553 cm^2/mL
O=C([O-])CCNC(=O)c1ccc(/N=N/c2ccc(O)c(C(=O)[O-])c2)cc1.[Na+].[Na+] [Sample 2]	0%	2.91%	2.91%	6.59%	9.50%	9.37%	18.9%	16.1%	35.0%	24.3%	59.3%	24.1%	83.4%	12.6%	3.78%	99.8%	0.23%	100%	0%	100%	Particle size, % < 10: 1.192 μm; Particle size, % < 25: 2.586 μm; Particle size, % < 50: 5.044 μm; Particle size, % < 75: 8.715 μm; Particle size, % < 100: 47.94 μm; Cum. < Volume % [8]: 96.0%; Diff. Volume % [11]: 0%; Cum. < Volume % [12]: 100%; Diff. Volume % [12]: 0%; Cum. < Volume % [13]: 100%; Diff. Volume % [13]: 0%; Cum. < Volume % [14]: 100%; Diff. Volume % [14]: 0%; Cum. < Volume % [15]: 100%; Diff. Volume % [15]: 0%; Cum. < Volume % [16]: 100%; Diff. Volume % [16]: 0%; Mean particle size (volume statistics, arithmetic): 6.503 μm; Median particle size (volume statistics, arithmetic): 5.044 μm; Specific Surf. Area: 20709 cm^2/mL
O=C([O-])CCNC(=O)c1ccc(/N=N/c2ccc(O)c(C(=O)[O-])c2)cc1.[Na+].[Na+] [Sample 3]	0%	2.13%	2.13%	4.92%	7.05%	6.97%	14.0%	12.1%	26.1%	20.4%	46.4%	25.7%	72.2%	19.8%	7.20%	99.2%	0.79%	99.997%	0.0029%	100%	Particle size, % < 10: 1.498 μm; Particle size, % < 25: 3.385 μm; Particle size, % < 50: 6.679 μm; Particle size, % < 75: 11.50 μm; Particle size, % < 100: 63.41 μm; Cum. < Volume % [8]: 92.0%; Diff. Volume % [11]: 0%; Cum. < Volume % [12]: 100%; Diff. Volume % [12]: 0%; Cum. < Volume % [13]: 100%; Diff. Volume % [13]: 0%; Cum. < Volume % [14]: 100%; Diff. Volume % [14]: 0%; Cum. < Volume % [15]: 100%; Diff. Volume % [15]: 0%; Cum. < Volume % [16]: 100%; Diff. Volume % [16]: 0%; Mean particle size (volume statistics, arithmetic): 8.399 μm; Median particle size (volume statistics, arithmetic): 6.679 μm; Specific Surf. Area: 16802 cm^2/mL
